Results: patent US9504672B2, “Compositions and methods for treating or preventing pneumovirus infection and associated diseases” (MicroDose Therapeutx, Inc., priority 2012, dated 2016)
Read-outs that look alike come from different tables or passages of the source.

Legend:
[1] = Competitive slurry stability study between P-2 and P-3 (PXRD quantitative phase analysis); type: physicochemical; details: 50/50 acetonitrile/water, 25° C.
[2] = Particle size of micronized material (Sympatec HELOS & RODOS); type: physicochemical
[3] = Bulk powder density and flow indices (volumetric); type: physicochemical
physchem [4] = details: 25 °C, organic solvent or mixture, thermodynamic from solid
[5] = 40° C./75% RH, 4 weeks
[6] = for Total Imp/Deg: listed as P224-135-2; for number of impurity peaks: listed as P-2
Experimental: Forced degradation experiments consisted of placing solid samples of P-2 hydrate and P-3 dihydrate materials in sealed glass bottles at 120° C. for 7 days.

physchem [7] = assay: physchem
Experimental: Equilibrium solubility of different API forms in aqueous ethanol: This solubility was determined for P-2 and P-3 crystal forms using slurry equilibration and solution concentration measurement with HPLC.

[8] = Thermodynamic relationship (hierarchy) of P-2 and P-3 crystal forms; type: physicochemical; details: ambient conditions (15-37° C., 40-100% RH)
Source text: FIG. 17 illustrates the thermodynamic relationship (hierarchy) of the P-2 and P-3 families of crystal forms.

[9] = Slurry of equal mixture of six phases in 75/25 acetone-water (PXRD); type: physicochemical; details: 25° C., 12 days
Experimental: An equal powder mixture of six known phases (P-2, P-3, P-4, P-6, P-7 and P-8), 50 mg each were stirred in 75/25 acetone-water solvent (50 mL) at 25° C. over 12 days.

[10] = Experimental: The data are shown for: (a) non-hydrogenated DPPC (Sigma-Aldrich, USA) and (b) hydrogenated DPPC (Lipoid LLC, USA) surfactants at 0.02% w/v concentration. Each data point represents a triplicate sample obtained at temperature 37° C.
Time-dependent solubility study was carried out in simulated lung fluid (SLF) containing the surfactant dipalmitoylphosphatidylcholine (DPPC). The DPPC is a major surfactant present in the human lung.
Simulated lung fluid was prepared according to a method described by Moss et al. (Health Physics 1979, v36, 447-448).
A 0.1% DPPC in water solution was prepared according to a procedure published by Marques et al. (Dissolution Technologies, August 2011). The SLF solution modified with 0.02% DPPC was prepared by diluting the 0.1% DPPC solution with SLF. Refer to NB1181P59-60 for the details on the preparation procedure of SLF and SLF modified with 0.02% DPPC. Two types of DPPC were used in the study. The hydrogenated DPPC was supplied by Lipoid LLC (USA), while the non-hydrogenated DPPC was supplied by Sigma-Aldrich (catalogue # P0763-1G). […] In order to segregate the solid drug substance from the cloudy solution, a dialysis tube (Sigma-Aldrich catalogue # D9277-100FT) was used. A saturated solution of the drug substance in SLF modified with 0.02% DPPC was prepared and carefully transferred into the dialysis tube (˜10 mL in volume). […]

[11] = Specific surface area (BET); type: physicochemical
[12] = remark: listed apart in the source
Source text: Four lots of MDT-637 API were micronized using a 2-inch spiral jet mill.

[13] = Critical water activity by DVS sorption/desorption isotherms; type: physicochemical
Source text: The characteristic gravimetric loss of water is between 1-4.5% w/w.
The characteristic gravimetric loss of water for P-3 dihydrate is between 5.5-8.5% w/w. The profound difference of the DVS curves between the P-2 and P-3 forms can be utilized as a secondary technique for quantitative phase analysis of these forms.

physchem [14] = details: 37 °C, water, thermodynamic from solid

Cc1nnnn1/N=C/c1ccc(O)c(C(c2ccc(O)cc2)c2cc(/C=N/n3nnnc3C)ccc2O)c1 [P-2 hydrate, phenol, 2,2′-[(4-hydroxyphenyl)methylene]bis[4-[[(5-methyl-1H-tetrazol-1-yl)imino]methyl]]]
composition of slurry for P-2 hydrate ([1]; 4 days (50% at day 0)): 77%
composition of slurry for P-2 hydrate ([1]; 10 days (50% at day 0)): 85%
Characteristic medium volume particle size (micronized) [2]: 1.1 μm
Carr index [3]: 16.7%
Hausner ratio [3]: 1.20
Poured bulk powder density [3]: 0.16 g/mL
Tapped bulk powder density [3]: 0.19 g/mL
solubility (physchem [4]): 190 µg/mL
Assay ([5]; open dish, listed as P-2): 98.8%
Rel Subs ([5]; open dish, listed as P-2): 0.68%
Water ([5]; open dish, listed as P-2): 3.5%
change of form / solid-state stability (DSC and PXRD) ([5]; open wide glass bottles): no change of form
chemical stability ([5]; open wide glass bottles): Acceptable chemical stability
Grand Total ([6]; 120C/7D): 99.8 Area %
Total Imp/Deg ([6]; 120C/7D): 0.76 Area %
Impurity/Degradation Product A ([6]; 7 days): 0.07 Area %
Impurity/Degradation Product H ([6]; 7 days): 0.40 Area %
Impurity/Degradation Product I ([6]; 7 days): 0.07 Area %
Impurity/Degradation Product K ([6]; 7 days): 0.16 Area %
Impurity/Degradation Product P ([6]; 7 days): 0.06 Area %
Grand Total ([6]; CTRL): 99.9 Area %
Total Imp/Deg ([6]; CTRL): 0.67 Area %
number of impurity peaks ([6]; control): 4 peaks
number of impurity peaks ([6]; stressed sample, 120° C. for 7 days): 5 peaks
equilibrium solubility (physchem [7]): 416.5 µg/mL
thermodynamic stability [8]: most stable crystal form
form conversion / stability in six-phase slurry [9]: most thermodynamically stable form
factor by which solubility is lower than that of P-3 dihydrate [10]: 5 to 6
Specific surface area [11]: 22.6 m^2/g
effect of micronization on crystallinity, phase purity, chemical degradation [12]: did not affect the crystallinity, phase purity
critical water activity for transition between P-2 hydrate and anhydrous forms ([13]; 1% RH equilibration steps): 30-40 % RH
Characteristic relative humidity of dehydration (20° C.) ([13]; 20° C.): 30-40%
solubility (physchem [14]): < 6 nM
